Experiment: mn = molality of the nth substance listed, in mol/kg
Conditions: 101 kPa, Liquid; for mass density: Pycnometric method; for viscosity: Capillary tube (Ostwald / Ubbelohde) method; for speed of sound: Linear variable-path acoustic interferometer

O=[N+]([O-])[O-].O=[N+]([O-])[O-].[Mg+2] [magnesium nitrate] + O
Conditions | mass density [kg/m3] | speed of sound [m/s] | viscosity [mPa·s]
306.45 K, m1 = 0.0145 | 995.89 | – | –
306.5 K, m1 = 0.896 | 1083.6 | – | –
306.5 K, m1 = 3.096 | 1266.4 | – | –
306.65 K, m1 = 0.5931 | 1054 | – | –
306.65 K, m1 = 3.501 | 1294.4 | – | –
306.7 K, m1 = 3.118 | 1267.2 | – | –
306.7 K, m1 = 3.757 | 1310.9 | – | –
306.7 K, m1 = 5.134 | 1397 | – | –
306.75 K, m1 = 4.728 | 1373.4 | – | –
306.8 K, m1 = 3.17 | 1276 | – | –
307.05 K, m1 = 0.6173 | 1056.6 | – | –
307.05 K, m1 = 4.883 | 1379.9 | – | –
307.25 K, m1 = 1.827 | 1167 | – | –
307.45 K, m1 = 4.039 | 1327.9 | – | –
307.6 K, m1 = 2.584 | 1228.1 | – | –
307.65 K, m1 = 4.97 | 1385.7 | – | –
307.7 K, m1 = 3.704 | 1307.2 | – | –
307.8 K, m1 = 2.793 | 1243.4 | – | –
307.9 K, m1 = 1.694 | 1154 | – | –
307.95 K, m1 = 0.2491 | 1020.1 | – | –
308.1 K, m1 = 4.403 | 1351 | – | –
308.15 K, m1 = 0.0145 | – | 1520.8 | 0.7364
308.15 K, m1 = 0.0528 | – | 1522.6 | 0.745
308.15 K, m1 = 0.2491 | – | 1536.2 | 0.7877
308.15 K, m1 = 0.3405 | – | 1539.2 | –
308.15 K, m1 = 0.5931 | – | – | 0.8757
308.15 K, m1 = 0.6173 | – | 1559.2 | –
308.15 K, m1 = 0.896 | – | 1578.7 | –
308.15 K, m1 = 0.9898 | – | 1585.6 | 1.005
308.15 K, m1 = 1.262 | – | 1602.4 | 1.11
308.15 K, m1 = 1.525 | – | 1621.7 | –
308.15 K, m1 = 1.827 | – | 1644.8 | 1.342
308.15 K, m1 = 2.131 | – | 1666.7 | 1.498
308.15 K, m1 = 2.493 | – | 1688 | –
308.15 K, m1 = 2.584 | – | – | 1.777
308.15 K, m1 = 2.793 | – | 1708.9 | –
308.15 K, m1 = 3.096 | – | – | 2.146
308.15 K, m1 = 3.118 | – | 1728.7 | –
308.15 K, m1 = 3.17 | – | 1735.9 | –
308.15 K, m1 = 3.329 | – | – | 2.343
308.15 K, m1 = 3.501 | – | 1752.2 | –
308.15 K, m1 = 3.704 | – | – | 2.692
308.15 K, m1 = 3.757 | – | 1770.5 | –
308.15 K, m1 = 4.039 | – | – | 3.089
308.15 K, m1 = 4.051 | – | 1781.1 | –
308.15 K, m1 = 4.285 | – | 1794.4 | –
308.15 K, m1 = 4.403 | – | 1800.6 | –
308.15 K, m1 = 4.728 | – | – | 4.262
308.15 K, m1 = 4.883 | – | 1826.2 | –
308.15 K, m1 = 4.907 | – | – | 4.654
308.15 K, m1 = 5.134 | – | 1838.4 | –
308.15 K, m1 = 5.282 | – | – | 5.506
308.35 K, m1 = 0.9898 | 1091.9 | – | –
308.4 K, m1 = 1.525 | 1138.7 | – | –
308.45 K, m1 = 1.262 | 1116 | – | –
308.55 K, m1 = 0.3405 | 1028.5 | – | –
308.7 K, m1 = 5.282 | 1404.1 | – | –
308.75 K, m1 = 3.757 | 1309.6 | – | –
308.85 K, m1 = 3.096 | 1265 | – | –
308.85 K, m1 = 4.285 | 1343.6 | – | –
308.95 K, m1 = 3.118 | 1265.8 | – | –
309 K, m1 = 0.896 | 1082.4 | – | –
309.05 K, m1 = 4.728 | 1371.9 | – | –
309.25 K, m1 = 2.131 | 1191 | – | –
309.3 K, m1 = 2.493 | 1218.8 | – | –
309.35 K, m1 = 4.883 | 1378.4 | – | –
309.4 K, m1 = 4.051 | 1326.7 | – | –
309.5 K, m1 = 0.0145 | 994.82 | – | –
309.5 K, m1 = 0.5931 | 1052.8 | – | –
309.5 K, m1 = 0.6173 | 1055.5 | – | –
309.6 K, m1 = 0.0528 | 999.02 | – | –
309.65 K, m1 = 1.827 | 1165.8 | – | –
309.75 K, m1 = 4.97 | 1384.3 | – | –
309.9 K, m1 = 2.584 | 1226.7 | – | –
309.95 K, m1 = 3.704 | 1305.7 | – | –
310.1 K, m1 = 1.694 | 1152.8 | – | –
310.15 K, m1 = 4.403 | 1349.7 | – | –
310.7 K, m1 = 0.9898 | 1090.8 | – | –
310.8 K, m1 = 0.2491 | 1019 | – | –
310.9 K, m1 = 3.096 | 1263.8 | – | –
310.95 K, m1 = 1.262 | 1114.7 | – | –
311 K, m1 = 3.501 | 1291.7 | – | –
311 K, m1 = 3.757 | 1308.1 | – | –
311.05 K, m1 = 3.17 | 1273.3 | – | –
311.2 K, m1 = 3.118 | 1264.5 | – | –
311.25 K, m1 = 2.131 | 1189.9 | – | –
311.25 K, m1 = 4.728 | 1370.6 | – | –
311.35 K, m1 = 5.134 | 1394 | – | –
311.45 K, m1 = 4.883 | 1377.1 | – | –
311.55 K, m1 = 0.896 | 1081.3 | – | –
311.75 K, m1 = 1.827 | 1164.7 | – | –
311.9 K, m1 = 4.039 | 1325 | – | –
311.95 K, m1 = 5.282 | 1402.5 | – | –
312 K, m1 = 4.97 | 1382.9 | – | –
312.1 K, m1 = 0.6173 | 1054.3 | – | –
312.15 K, m1 = 1.694 | 1151.6 | – | –
312.15 K, m1 = 2.793 | 1240.8 | – | –
312.25 K, m1 = 0.0528 | 997.99 | – | –
312.4 K, m1 = 4.403 | 1348.2 | – | –
312.45 K, m1 = 0.0145 | 993.76 | – | –
312.95 K, m1 = 1.525 | 1136.3 | – | –
313.1 K, m1 = 1.262 | 1113.5 | – | –
313.15 K, m1 = 0.0145 | – | 1532.2 | 0.6666
313.15 K, m1 = 0.0528 | – | 1531.9 | 0.6778
313.15 K, m1 = 0.2491 | – | 1544.5 | 0.7155
313.15 K, m1 = 0.3405 | – | 1546 | –
313.15 K, m1 = 0.5931 | – | – | 0.7972
313.15 K, m1 = 0.6173 | – | 1566.4 | –
313.15 K, m1 = 0.896 | – | 1584.7 | –
313.15 K, m1 = 0.9898 | – | 1591.3 | 0.913
313.15 K, m1 = 1.262 | – | 1607.1 | 1.008
313.15 K, m1 = 1.525 | – | 1625.9 | –
313.15 K, m1 = 1.827 | – | 1647.8 | 1.305
313.15 K, m1 = 2.131 | – | 1667.8 | 1.364
313.15 K, m1 = 2.493 | – | 1688.9 | –
313.15 K, m1 = 2.584 | – | – | 1.616
313.15 K, m1 = 2.793 | – | 1709 | –
313.15 K, m1 = 3.096 | 1262.3 | – | 1.947
313.15 K, m1 = 3.118 | – | 1728.1 | –
313.15 K, m1 = 3.17 | – | 1734.7 | –
313.15 K, m1 = 3.329 | – | – | 2.128
313.15 K, m1 = 3.501 | – | 1751.2 | –
313.15 K, m1 = 3.704 | – | – | 2.435
313.15 K, m1 = 3.757 | – | 1767.8 | –
313.15 K, m1 = 4.039 | – | – | 2.798
313.15 K, m1 = 4.051 | – | 1778.4 | –
313.15 K, m1 = 4.285 | – | 1791.3 | –
313.15 K, m1 = 4.403 | – | 1797.9 | –
313.15 K, m1 = 4.728 | – | – | 3.817
313.15 K, m1 = 4.883 | – | 1823.1 | –
313.15 K, m1 = 4.907 | – | – | 4.176
313.15 K, m1 = 5.134 | – | 1834.3 | –
313.15 K, m1 = 5.282 | – | – | 4.924
313.25 K, m1 = 3.118 | 1263.3 | – | –
313.25 K, m1 = 4.285 | 1340.7 | – | –
313.45 K, m1 = 0.2491 | 1017.9 | – | –
313.5 K, m1 = 2.493 | 1216.4 | – | –
313.6 K, m1 = 2.131 | 1188.5 | – | –
313.7 K, m1 = 0.3405 | 1026.4 | – | –
313.7 K, m1 = 4.883 | 1375.5 | – | –
313.8 K, m1 = 0.896 | 1080.2 | – | –
313.8 K, m1 = 4.051 | 1324 | – | –
314.1 K, m1 = 2.793 | 1239.5 | – | –
314.15 K, m1 = 3.704 | 1303 | – | –
314.15 K, m1 = 5.282 | 1401.1 | – | –
314.25 K, m1 = 2.584 | 1224.2 | – | –
314.45 K, m1 = 0.5931 | 1050.6 | – | –
314.45 K, m1 = 0.6173 | 1053.3 | – | –
314.5 K, m1 = 1.694 | 1150.4 | – | –
314.5 K, m1 = 4.403 | 1346.8 | – | –

From the NIST ThermoML archive (doi:10.1021/je060107n)
